In experiment [1] the test system is CFU-MIX. The experiment can be described thus: CFU-MIX cycling assay in vitro (Ara C kill). It counts as cell-based, mouse. As to the method: A similar assay can be performed in vitro, using the cycling status of CFU-MIX instead of CFU-S. The assay is performed as described above for the CFU-S assay except that cytosine arabinoside (Ara C, 30 micrograms/ml) is used as the cycle-specific toxic agent instead of high dose tritiated thymidine (see B. I. Lord in Haemopoiesis—A Practical Approach, N. G. Testa and G. Molineux (Eds.), IRL Press 1993; Pragnell et al. in Culture of Hematopoietic Cells, R. I. Freshney, I. B. Pragnell and M. G. Freshney (Eds.), Wiley Liss 1994) and a mouse strain with high endogenous cycling rates (Balb/c) is used instead of testosterone-treated BDFI mice.
24 hours later (Day 1), varying doses of peptide 43-55 or vehicle were injected i.v. Bone marrow was harvested on Day 2 and the […] cycling assay conducted as in Example 14. Specifically, mice were sacrificed and single cell bone marrow suspensions prepared from the femurs. The cells were washed once and the concentration adjusted to 5×10^6 cells/ml in Fischer medium. For each test condition, one milliliter of cells was added to each of two polypropylene tubes. The tubes were incubated at 37° C. for 3 hours without (“Control”) or with (“Experimental”) the appropriate concentration of test substance. At the end of the incubation, 30 μg/ml of cytosine arabinoside (“Ara C” (Sigma)) was added to half of the tubes and the same volume of Fischer's medium was added to the others. The tubes were incubated for a further 1 hour at 37° C., after which they were placed on ice and washed twice with cold Fischer medium.
The cells were readjusted to 5×10^4-10^6/ml in Fischer's medium and 0.5 ml of cell suspension added to 5 ml of Methocult M3430 methylcellulose medium (Stem Cell Technologies, Vancouver, British Columbia). The mixture was vigorously mixed with a vortex and 1 ml was dispensed into each of five 35 mm dishes. The 35 mm dishes were in turn placed in a covered 150 mm dish with one open 35 mm dish containing sterile water. CFU-MIX colonies were counted with the use of an inverted microscope after 7 days of incubation at 37° C.
Differences in colony number between the tubes treated with medium versus the tubes treated with Ara C represent the percentage of cells in cycle under that condition according to the formula:
a=Number of CFU-MIX from tube incubated with medium alone
b=Number of CFU-MIX from tube incubated with Ara C

Experiment [2] has as its system CFU-MIX. Nature of the experiment: Stimulation of cycling of quiescent murine stem cells, CFU-MIX cycling assay in vitro. Type of experiment: cell-based, mouse. As to the method: Microgram per milliliter doses of hemoglobin chains, myoglobin and peptides were assayed for stimulation of quiescent stem cells. Bone marrow was obtained from untreated B6D2F1 tested in the CFU-MIX cycling assay as in Example 24. Stem cells isolated from untreated B6D2F1 mice are normally slowly cycling unless stimulated (e.g. by testosterone propionate (cf. Example 1) or chemotherapy such as 5FU (cf. Example 4)) to enter into cycle.

Setting [3] is: Table 13, bone marrow from Balb/c mice, 100 ng/ml.
The mark [4] stands for this setting: Table 38, untreated B6D2F1 bone marrow, concentration printed only as (μg/ml).
[5] abbreviates: Table 39, untreated B6D2F1 bone marrow, 10^−3M.
Where [6] appears, read: Table 39, untreated B6D2F1 bone marrow, 10^−5M.

No end group written: not given here. *: point of attachment. Biotin = O=C1N[C@H]2[C@H](CS[C@H]2CCCCC(=O)*)N1; C4 linker = not defined here

With “Human beta chain: purified human hemoglobin beta chain”, the “% Kill” value is 41% in experiment [1] (Table 11, bone marrow from Balb/c mice, 100 ng/ml); 55% in experiment [1] (setting [3]); 55% in experiment [2] (setting [4]).
Take “Human delta chain: purified human hemoglobin delta chain”: the “% Kill” value in experiment [1] (Table 12, bone marrow from Balb/c mice, 100 ng/ml) is reported as −4%; in experiment [1] (Table 29, 100 ng/ml, alone), 10%.
For `C=CCN1CC[C@]23c4c5ccc(O)c4O[C@H]2C(=O)CC[C@@]3(O)[C@H]1C5` [Naloxone, naloxone, reference compound], the “effect of naloxone itself on the assay” value in experiment [1] (10^−5-10^−7M) is “no effect”. In addition, the “% Kill” value is listed as 36% in experiment [1] (Table 28, naloxone alone, 10^−5M final concentration) and 0% in experiment [1] (Table 30, 10^−10M).
Consider “VVYPWTQR [Hemorphin 7, reference compound]”, for which the “% Kill” value in experiment [1] (Table 18, 100 ng/ml) was 0%.
As to “H-D-Phe-Cys-Tyr-D-Trp-Orn-Thr-Pen-Thr-NH2 [CTOP, reference compound]”, the “effect of CTOP itself on the assay” value in experiment [1] (10^−7 M) is “no effect”. In addition, the “% Kill” value in experiment [1] (Table 31, CTOP alone, 10^−7M final concentration) turned out to be 36%.
On to “Biotinylated beta chain: human hemoglobin beta chain from hemoglobin treated with NHS LC Biotin”, for which, in experiment [1] (setting [3]), the “% Kill” value was 25%.
“Biotinylated peptide 43-55: Peptide 43-55 with biotin linked via a C4 carbon linker to the N-terminal NH2 of Phe43 ({Biotin-C4 linker}-FPHFDLSHGSAQV; reading uncertain; UniProt P69905 44-56, looked up, fragment)”: in experiment [1] (Table 24, 1 ng/ml), the “% Kill” value is reported as 15%.
`CC(C)C[C@@H](NC(=O)[C@H](Cc1ccccc1)NC(=O)CNC(=O)[C@@H](C)NC(=O)[C@@H](N)Cc1ccc(O)cc1)C(=O)O` [DADLE, reference compound]: the “% Kill” value in experiment [2] (setting [5]) and in experiment [2] (setting [6]) was 0% each time.
As for “Leu-Val-Val-Tyr-Pro-Trp-Thr-Gln-Arg-Phe (LVVYPWTQRF; printed: Leu-Val-Val-Tyr-Pro-Trp-Thr-Gln-Arg-Phe) [Hemorphin 10, reference compound]”, the “% Kill” value in experiment [1] (Table 18, 100 ng/ml) was determined as 1%; in experiment [1] (Table 28, 100 ng/ml, alone) it was 0%.
For the molecule “Biotinylated alpha chain: human hemoglobin alpha chain from hemoglobin treated with NHS LC Biotin”, in experiment [1] (setting [3]), the “% Kill” value worked out at 7%.
For the molecule “(D-Arg^2, Lys^4)-Dermorphin-(1-4)-amide [DALDA, reference compound]”, the “% Kill” value in experiment [1] (Table 26, Balb/c bone marrow, 10^−5M) amounted to 47%; in experiment [1] (Table 26, Balb/c bone marrow, 10^−7M), 0%; in experiment [1] (Table 26, Balb/c bone marrow, 10^−9M), 34%; in experiment [2] (setting [5]), 41%; in experiment [2] (setting [6]) it was 24%.
For the molecule “1-94 fragment: purified formic-acid cleaved fragment, amino acids 1-94 of human alpha hemoglobin chain”, the “% Kill” value in experiment [1] (Table 20, Balb/c bone marrow, 100 ng/ml) turned out to be 0%.

B1: Human Myoglobin: human myoglobin (protein, UniProt P02144 2-154, looked up)
Myoglobin: GLSDGEWQLVLNVWGKVEADIPGHGQEVLIRLFKGHPETLEKFDKFKHLKSEDEMKASEDLKKHGATVLTALGGILKKKGHHEAEIKPLAQSHATKHKIPVKYLEFISECIIQVLQSKHPGDFGADAQGAMNKALELFRKDMASNYKELGFQG
For B1, the “stem cell inhibitory activity, in words” value in experiment [1] (CFU-MIX cycling assay) is “inactive”. Also, in experiment [2] (setting [4]), the “% Kill” value worked out at 30%.
